What all share (assay): ≥ marks a high value that may be exact or a test limit, other limits are often not marked, values filed in µg/mL are converted to µM
Assay [1] has as its system Escherichia coli ATCC 25922.
In assay [2] the test system is Staphylococcus aureus ATCC 25923.
In assay [3] the test system is Pseudomonas aeruginosa ATCC 27853.
For assay [4], the system named is Staphylococcus aureus ATCC 29213.
Assay [5] concerns Escherichia coli.

Converted amounts (≈) assume the structure as drawn.

Consider `C[C@H](NC(=O)[C@H](Cc1c[nH]c2ccccc12)NC(=O)[C@H](CCCN=C(N)N)NC(=O)[C@H](CCCN=C(N)N)NC(=O)[C@H](C)NC(=O)[C@H](CCCCN)NC(=O)[C@@H](N)Cc1ccc(O)cc1)C(=O)N[C@@H](Cc1c[nH]c2ccccc12)C(=O)N[C@@H](CCCN=C(N)N)C(=O)N[C@@H](Cc1c[nH]c2ccccc12)C(=O)N[C@@H](CCCCN)C(=O)O` [YKARRWAWRWK], for which the MIC was 12.4 µM (≈ 20 µg/mL) in assay [1], 12.4 µM (≈ 20 µg/mL) in assay [2] and 31.1 µM (≈ 50 µg/mL) in assay [3].
As to `CC[C@H](C)[C@H](NC(=O)[C@@H]1CCCN1C(=O)[C@H](CCCCN)NC(=O)[C@H](CC(C)C)NC(=O)[C@H](C)NC(=O)[C@@H](NC(=O)[C@@H](NC(=O)[C@H](CC(C)C)NC(=O)[C@@H](NC(=O)[C@H](CCCCN)NC(=O)[C@H](CCCCN)NC(=O)[C@H](C)NC(=O)[C@H](C)NC(=O)[C@H](CO)NC(=O)[C@@H](NC(=O)[C@H](CC(C)C)NC(=O)[C@H](CCCCN)NC(=O)[C@H](CCCCN)NC(=O)[C@H](CC(C)C)NC(=O)[C@H](Cc1ccccc1)NC(=O)[C@H](CCCCN)NC(=O)[C@H](CCCCN)NC(=O)[C@H](Cc1c[nH]c2ccccc12)NC(=O)[C@@H](N)CCCCN)[C@@H](C)O)C(C)C)[C@@H](C)O)[C@@H](C)O)C(=O)N[C@@H](CO)C(=O)N[C@@H](CO)C(=O)O` [KWKKFLKKLTSAAKKVLTTALKPISS], the MIC in assay [3] amounted to 2 µM (≈ 5.83 µg/mL).
Take `CC[C@H](C)[C@H](NC(=O)[C@H](CCCN=C(N)N)NC(=O)[C@H](CCCCN)NC(=O)[C@H](CC(C)C)NC(=O)[C@H](CC(C)C)NC(=O)CN)C(N)=O` [GLLKRI]: the minimal inhibitory concentration (MIC) in assay [1] and in assay [2] was greater than 54.4 µM each time.
For the compound `CC[C@H](C)[C@H](NC(=O)[C@H](CCCN=C(N)N)NC(=O)[C@H](CCCCN)NC(=O)[C@H](CC(C)C)NC(=O)[C@H](CC(C)C)NC(=O)CN)C(=O)N[C@@H](CCCCN)C(=O)N[C@@H](CC(N)=O)C(=O)N[C@@H](CC(C)C)C(=O)N[C@@H](CC(C)C)C(N)=O` [GLLKRIKNLL], the minimum inhibitory concentration (MIC) in assay [1] worked out at 18.8 µM (≈ 22 µg/mL); in assay [2], 10.3 µM (≈ 12 µg/mL).
In the case of `CC[C@H](C)[C@H](NC(=O)CNC(=O)[C@H](CCCCN)NC(=O)[C@@H](NC(=O)[C@H](CC(C)C)NC(=O)[C@H](CO)NC(=O)CNC(=O)[C@H](CC(C)C)NC(=O)CNC(=O)[C@H](C)NC(=O)[C@H](CCCCN)NC(=O)[C@H](Cc1ccccc1)NC(=O)[C@@H](NC(=O)[C@H](CCC(=O)O)NC(=O)[C@H](CCCCN)NC(=O)[C@H](CC(C)C)NC(=O)CN)[C@@H](C)CC)C(C)C)C(=O)N[C@@H](C)C(=O)N[C@@H](C)C(=O)N[C@@H](Cc1cnc[nH]1)C(=O)N[C@H](C(=O)N[C@@H](C)C(=O)N[C@@H](CC(N)=O)C(N)=O)C(C)C` [GLKEIFKAGLGSLVKGIAAHVAN], the minimal inhibitory concentration (MIC) in assay [1] stood at 25 µM (≈ 57.3 µg/mL); in assay [2], 200 µM (≈ 459 µg/mL).
Turning to `CC(=O)N[C@@H](CC(C)C)C(=O)N[C@@H](CCCCN)C(=O)N[C@@H](CCCCN)C(=O)N[C@@H](CC(C)C)C(=O)N[C@@H](CC(C)C)C(=O)N[C@@H](CCCCN)C(=O)N[C@@H](CC(C)C)C(=O)N[C@@H](CC(C)C)C(=O)N[C@@H](CCCCN)C(=O)N1CCC[C@H]1C(=O)N[C@@H](CC(C)C)C(=O)N[C@@H](CC(C)C)C(=O)N[C@@H](CCCCN)C(=O)N[C@@H](CC(C)C)C(N)=O` [LKKLLKLLKPLLKL], the MIC in assay [1] is 5 µM (≈ 8.51 µg/mL); in assay [4] it was 2.5 µM (≈ 4.26 µg/mL).
With `CC[C@H](C)[C@H](NC(=O)[C@@H](NC(=O)[C@H](CCCCN)NC(=O)[C@H](CC(C)C)NC(=O)[C@H](CC(C)C)NC(=O)CN)C(C)C)C(=O)N[C@@H](CCCCN)C(=O)N[C@H](C(=O)N[C@@H](CC(C)C)C(=O)N[C@@H](CC(C)C)C(N)=O)[C@@H](C)O` [GLLKVIKTLL], the minimum inhibitory concentration (MIC) in assay [1] and in assay [2] was 2.73 µM (≈ 3 µg/mL) in each case.
On to `CC(=O)N[C@@H](CCCCN)C(=O)N[C@@H](CC(C)C)C(=O)N[C@@H](CC(C)C)C(=O)N[C@@H](CCCCN)C(=O)N1CCC[C@H]1C(=O)N[C@@H](CC(C)C)C(=O)N[C@@H](CCCCN)C(=O)N[C@@H](CCCCN)C(=O)N[C@@H](CC(C)C)C(=O)N[C@@H](CC(C)C)C(=O)N[C@@H](CCCCN)C(=O)N[C@@H](CC(C)C)C(=O)N[C@@H](CC(C)C)C(=O)N[C@@H](CCCCN)C(N)=O` [KLLKPLKKLLKLLK], for which the MIC came to 20 µM (≈ 34.3 µg/mL) in assay [1] and 28.3 µM (≈ 48.6 µg/mL) in assay [4].
Take `C[C@H](NC(=O)[C@H](Cc1c[nH]c2ccccc12)NC(=O)[C@H](CCCN=C(N)N)NC(=O)[C@H](Cc1c[nH]c2ccccc12)NC(=O)[C@H](C)NC(=O)[C@H](CCCN=C(N)N)NC(=O)[C@@H](N)Cc1ccc(O)cc1)C(=O)N[C@@H](Cc1c[nH]c2ccccc12)C(=O)N[C@@H](CCCN=C(N)N)C(=O)N[C@@H](Cc1c[nH]c2ccccc12)C(=O)N[C@@H](CCCN=C(N)N)C(N)=O` [YRAWRWAWRWR]: the results for the MIC in assay [1], in assay [2] and in assay [3] were 5.91 µM (≈ 9.99 µg/mL), 1.48 µM (≈ 2.5 µg/mL) and 11.8 µM (≈ 20 µg/mL), respectively.
Consider `CC(C)C[C@H](NC(=O)[C@H](Cc1ccccc1)NC(=O)[C@@H]1CCCN1C(=O)[C@H](C)NC(=O)[C@H](C)NC(=O)[C@H](C)NC(=O)[C@@H]1CCCN1C(=O)[C@H](Cc1ccccc1)NC(=O)[C@H](CCCN=C(N)N)NC(=O)[C@H](CCCN=C(N)N)NC(=O)[C@@H](N)C(C)C)C(=O)N[C@@H](CCCN=C(N)N)C(=O)N[C@@H](CCCN=C(N)N)C(N)=O` [VRRFPAAAPFLRR], for which, in assay [1], the minimal inhibitory concentration (MIC) is greater than 128 µM.
Take `NC(=O)[C@H](Cc1c[nH]c2ccccc12)NC(=O)[C@H](CCCN=C(N)N)NC(=O)[C@H](Cc1c[nH]c2ccccc12)NC(=O)[C@H](CCCN=C(N)N)NC(=O)[C@H](Cc1c[nH]c2ccccc12)NC(=O)[C@@H](N)Cc1ccc(O)cc1` [YWRWRW]: the MIC in assay [1] was 19 µM (≈ 20 µg/mL); in assay [2] it was 9.5 µM (≈ 9.99 µg/mL); in assay [3], 47.5 µM (≈ 50 µg/mL).
With `CC(C)C[C@H](NC(=O)[C@H](Cc1ccccc1)NC(=O)[C@@H]1CCCN1C(=O)[C@H](Cc1ccc(O)cc1)NC(=O)[C@H](Cc1c[nH]c2ccccc12)NC(=O)[C@H](Cc1ccc(O)cc1)NC(=O)[C@@H]1CCCN1C(=O)[C@H](Cc1ccccc1)NC(=O)[C@H](CCCN=C(N)N)NC(=O)[C@H](CCCN=C(N)N)NC(=O)[C@@H](N)C(C)C)C(=O)N[C@@H](CCCN=C(N)N)C(=O)N[C@@H](CCCN=C(N)N)C(N)=O` [VRRFPYWYPFLRR], the MIC in assay [1] was found to be 16 µM (≈ 29.7 µg/mL). That is a double-digit micromolar value.
With `CC[C@H](C)[C@H](NC(=O)[C@H](C)NC(=O)CNC(=O)[C@H](C)NC(=O)[C@H](CCCCN)NC(=O)[C@H](CO)NC(=O)[C@H](C)NC(=O)[C@H](CCSC)NC(=O)CN)C(=O)N[C@@H](C)C(=O)NCC(=O)N[C@@H](CCCCN)C(=O)N[C@H](C(=O)N[C@@H](C)C(=O)N[C@@H](CCCCN)C(=O)N[C@H](C(=O)N[C@@H](C)C(=O)N[C@@H](Cc1c[nH]c2ccccc12)C(=O)N[C@@H](CCCCN)C(=O)N[C@@H](C)C(=O)N[C@@H](CC(C)C)C(=O)NCC(=O)NCC(=O)N[C@@H](C)C(N)=O)C(C)C)[C@@H](C)CC` [GMASKAGAIAGKIAKVAWKALGGA], in assay [1], the MIC is 12.5 µM (≈ 27.9 µg/mL). This MIC and that of the compound before are within 1.5-fold of each other.
The same measure, in the same setting: the value for `CC[C@H](C)[C@H](NC(=O)CNC(=O)[C@H](CCSC)NC(=O)[C@H](CCCCN)NC(=O)[C@H](C)NC(=O)[C@H](CC(C)C)NC(=O)[C@H](CCCCN)NC(=O)[C@H](CCC(=O)O)NC(=O)[C@H](CC(C)C)NC(=O)CNC(=O)[C@H](CCCCN)NC(=O)[C@H](CC(C)C)NC(=O)[C@@H](NC(=O)[C@H](CO)NC(=O)[C@H](CC(C)C)NC(=O)[C@H](C)N)[C@@H](C)CC)C(=O)N[C@@H](C)C(=O)N[C@@H](CC(C)C)C(=O)N[C@H](C(=O)N[C@@H](CC(N)=O)C(=O)N[C@H]1CSSC[C@@H](C(=O)O)NC(=O)[C@H](CCCCN)NC(=O)[C@H](CCCCN)NC(=O)[C@H]([C@@H](C)O)NC(=O)[C@H](C)NC(=O)[C@H](CCCCN)NC1=O)[C@@H](C)O` [ALSILKGLEKLAKMGIALTNCKATKKC] was 28 µM (≈ 79.7 µg/mL); that for `CC(C)C[C@H](NC(=O)[C@H](C)NC(=O)[C@H](CCCCN)NC(=O)[C@H](C)NC(=O)[C@H](C)NC(=O)CNC(=O)[C@H](CCCCN)NC(=O)[C@H](CC(C)C)NC(=O)[C@H](CC(C)C)NC(=O)[C@H](CC(=O)O)NC(=O)[C@H](CCCCN)NC(=O)[C@H](Cc1c[nH]c2ccccc12)NC(=O)CN)C(=O)N[C@H](C(=O)N[C@@H](CCCCN)C(=O)N[C@H](C(=O)N[C@H](C(=O)N[C@@H](Cc1ccccc1)C(N)=O)C(C)C)[C@@H](C)O)C(C)C` [GWKDLLKGAAKALVKTVF] was 3 µM (≈ 5.83 µg/mL).
With `CC(C)C[C@H](NC(=O)[C@H](CCCN=C(N)N)NC(=O)CNC(=O)CNC(=O)[C@@H](N)CCCN=C(N)N)C(=O)N[C@H]1CSSC[C@@H](C(=O)N[C@@H](CCC(=O)O)C(=O)O)NC(=O)[C@H](C(C)C)NC(=O)[C@@H]2CSSC[C@H](NC(=O)[C@H](Cc3ccc(O)cc3)NC1=O)C(=O)N[C@@H](CCCN=C(N)N)C(=O)N[C@@H](CCCN=C(N)N)C(=O)N[C@@H](CCCN=C(N)N)C(=O)N[C@@H](Cc1ccccc1)C(=O)N2` [RGGRLCYCRRRFCVCE], the MIC in assay [5] came to 0.303 µM (≈ 0.599 µg/mL).
`CC(C)[C@H](NC(=O)[C@@H]1CCCN1C(=O)[C@@H](N)Cc1ccccc1)C(=O)N[C@H](C(=O)N[C@@H](Cc1c[nH]c2ccccc12)C(=O)N[C@@H](CCCN=C(N)N)C(=O)N[C@@H](Cc1c[nH]c2ccccc12)C(=O)N[C@@H](Cc1c[nH]c2ccccc12)C(=O)N[C@@H](CCCN=C(N)N)C(=O)N[C@@H](Cc1c[nH]c2ccccc12)C(=O)N[C@@H](Cc1c[nH]c2ccccc12)C(=O)N[C@@H](CCCN=C(N)N)C(=O)NCC(N)=O)[C@@H](C)O` [FPVTWRWWRWWRG] yielded a minimal inhibitory concentration (MIC) in assay [1] of 11.3 µM (≈ 21.7 µg/mL).
Take `CC[C@H](C)[C@H](NC(=O)[C@H](CCCN=C(N)N)NC(=O)[C@H](CCCCN)NC(=O)[C@H](CC(C)C)NC(=O)[C@H](CC(C)C)NC(=O)CN)C(=O)N[C@@H](CCCCN)C(=O)N[C@@H](CC(C)C)C(=O)N[C@@H](CC(C)C)C(=O)N[C@@H](CC(C)C)C(N)=O` [GLLKRIKLLL]: the minimal inhibitory concentration (MIC) came out at 11.1 µM (≈ 13 µg/mL) in assay [1] and 6 µM (≈ 6.99 µg/mL) in assay [2].
